Data reported in US20070128217A1 (priority 2003, published 2007).

Assays:
[1] = system: rabbit serum obtained by immunizing a rabbit with the SARS-CoV strain Frankfurt 1; format: binding; parameters: Binding of a rabbit serum to linear peptides / Binding of a rabbit serum to looped peptides / Rabbit serum linear peptides / Rabbit serum looped peptides / Binding of a rabbit serum to linear peptides of protein N of SARS-CoV Urbani (Rabbit serum linear peptides) / Binding of a rabbit serum to looped/cyclic peptides of protein N of SARS-CoV Urbani (Rabbit serum looped peptides): unit not given here
[2] = system: control sera (pooled serum of ten healthy LUMC hospital workers; commercial negative donor pooled serum from the Dutch bloodbank); format: binding, human
[3] = system: antibodies in sera from SARS patients (sera 1a, 1b, 2, 6, 37, 62, London, SARS-yellow, SARS-green); format: binding, human

Sequence	Binding of a rabbit serum to linear peptides [1]	Binding of a rabbit serum to looped peptides [1]	Binding of Control Serum Blood-Bank to Looped peptides [2]	Binding of Control serum Blood-bank to linear peptides [2]	Binding of Control serum LUMC to linear peptides [2]	Binding of Control serum LUMC to looped peptides [2]	Binding of serum 1a to linear peptides of protein E of SARS-CoV Urbani [3]	Binding of serum 1a to looped/cyclic peptides of protein E of SARS-CoV Urbani [3]	Binding of serum 1b to linear peptides of protein E of SARS-CoV Urbani [3]	Binding of serum 1b to looped/cyclic peptides of protein E of SARS-CoV Urbani [3]	Binding of serum 2 to linear peptides of protein E of SARS-CoV Urbani [3]	Binding of serum 2 to looped/cyclic peptides of protein E of SARS-CoV Urbani [3]	Binding of serum 6 to linear peptides of protein E of SARS-CoV Urbani [3]	Binding of serum 6 to looped/cyclic peptides of protein E of SARS-CoV Urbani [3]	Binding of serum 37 to linear peptides of protein E of SARS-CoV Urbani [3]	Binding of serum 37 to looped/cyclic peptides of protein E of SARS-CoV Urbani [3]	Binding of serum 62 to linear peptides of protein E of SARS-CoV Urbani [3]	Binding of serum 62 to looped/cyclic peptides of protein E of SARS-CoV Urbani [3]	Binding of serum London to linear peptides of protein E of SARS-CoV Urbani [3]	Binding of serum London to looped/cyclic peptides of protein E of SARS-CoV Urbani [3]	also measured
NSVLLFLAFVVFLLV	0.6	0.6	0.6	0.7	0.7	0.8	0.8	0.6	0.6	0.5	0.6	0.6	0.9	0.4	0.7	0.7	0.7	0.7	0.6	0.3	Binding of serum SARS-green to linear peptides of protein E of SARS-CoV Urbani [3]: 0.3; Binding of serum SARS-green to looped/cyclic peptides of protein E of SARS-CoV Urbani [3]: 0.4; Binding of serum SARS-yellow to linear peptides of protein E of SARS-CoV Urbani [3]: 0.2; Binding of serum SARS-yellow to looped/cyclic peptides of protein E of SARS-CoV Urbani [3]: 0.7
RLCAYCCNIVNVSLV	0.4	0.2	0.7	0.8	0.6	0.8	0.6	0.7	0.5	0.7	0.6	0.7	0.4	0.7	0.5	0.6	0.4	0.8	0.5	0.5	Binding of serum SARS-green to linear peptides of protein E of SARS-CoV Urbani [3]: 0.5; Binding of serum SARS-green to looped/cyclic peptides of protein E of SARS-CoV Urbani [3]: 0.8; Binding of serum SARS-yellow to linear peptides of protein E of SARS-CoV Urbani [3]: 0.2; Binding of serum SARS-yellow to looped/cyclic peptides of protein E of SARS-CoV Urbani [3]: 0.6
SVLLFLAFVVFLLVT	0.6	0.2	0.6	0.7	0.5	0.7	0.8	0.6	0.7	0.5	0.5	0.5	0.9	0.4	0.8	0.6	0.7	0.6	0.5	0.4	Binding of serum SARS-green to linear peptides of protein E of SARS-CoV Urbani [3]: 0.5; Binding of serum SARS-green to looped/cyclic peptides of protein E of SARS-CoV Urbani [3]: 0.6; Binding of serum SARS-yellow to linear peptides of protein E of SARS-CoV Urbani [3]: 0.3; Binding of serum SARS-yellow to looped/cyclic peptides of protein E of SARS-CoV Urbani [3]: 0.6
TALRLCAYCCNIVNV	0.2	0.4	0.7	0.5	0.6	0.7	0.7	0.7	0.5	0.4	0.5	0.8	0.4	0.6	0.5	0.7	0.5	0.9	0.5	0.5	Binding of serum SARS-green to linear peptides of protein E of SARS-CoV Urbani [3]: 0.6; Binding of serum SARS-green to looped/cyclic peptides of protein E of SARS-CoV Urbani [3]: 0.7; Binding of serum SARS-yellow to linear peptides of protein E of SARS-CoV Urbani [3]: 0.2; Binding of serum SARS-yellow to looped/cyclic peptides of protein E of SARS-CoV Urbani [3]: 0.9
TLIVNSVLLFLAFVV	0.1	0.3	0.8	0.6	0.4	0.8	0.7	0.6	0.5	0.5	0.4	0.7	0.5	0.4	0.5	0.7	0.3	0.6	0.6	0.4	Binding of serum SARS-green to linear peptides of protein E of SARS-CoV Urbani [3]: 0.6; Binding of serum SARS-green to looped/cyclic peptides of protein E of SARS-CoV Urbani [3]: 0.5; Binding of serum SARS-yellow to linear peptides of protein E of SARS-CoV Urbani [3]: 0.3; Binding of serum SARS-yellow to looped/cyclic peptides of protein E of SARS-CoV Urbani [3]: 0.6
